Starred links: 1 amine or outer side, 2 acyl side, 3 side chain; linkers in the order of their positions; H or OH if unused. Positions of bridges follow the written chain, without caps; N, C: chain ends. Non-standard residues stand in square brackets, D forms with d. Residues, ends and D or L forms follow the SMILES beside them. *: point of attachment. Phe(4-(CH2)5CO) = O=C([C@H](Cc1ccc(CCCCCC(=O)[*:3])cc1)N[*:1])[*:2]; NEtPhe = CCN[C@@H](Cc1ccccc1)C(=O)O; NMeF = CN[C@@H](Cc1ccccc1)C(=O)O; NMeI = CC[C@H](C)[C@H](NC)C(=O)O; hPhe = N[C@@H](CCc1ccccc1)C(=O)O; NMeL = CN[C@@H](CC(C)C)C(=O)O; NMeV = CN[C@H](C(=O)O)C(C)C; NMeA = CN[C@@H](C)C(=O)O; Piperidide = C1CCN(*)CC1; dNMeA = CN[C@H](C)C(=O)O; β3hA = C[C@H](N)CC(=O)O; NPrGly = CCCNCC(=O)O; Sar = CNCC(=O)O; tBu = CC(C)(C)*

This passage reports microsomal CLint results from patent publication US9409952B2, “Peptide-compound cyclization method” (Chugai Seiyaku Kabushiki Kaisha, priority 2011, dated 2016).

The nature of the first data set: Metabolic stability in human hepatic microsome. The note with it: human, microsomes, pH 7.4, CL NADPH(+). The data set is classed as in vitro ADME.
On to `CC[C@H](C)[C@@H]1NC(=O)[C@H](CC(C)C)N(C)C(=O)[C@H](CC(C)C)N(C)C(=O)[C@H](C)NC(=O)[C@H](CC(C)C)N(C)C(=O)[C@H](Cc2ccccc2)NC(=O)[C@H]([C@@H](C)O)NC(=O)[C@H](CC(C)C)N(C)C(=O)[C@H](CC(C)C)N(C)C(=O)[C@H](C)N(C)C(=O)C[C@H](C)NC1=O` [DP-772] (cyclo(A[NMeL][NMeL]I[β3hA][NMeA][NMeL][NMeL]TF[NMeL])), for which the microsomal CLint at 1 uM stood at 153 µL/min/mg.

Staying with this data set, now noted: microsomes, pH 7.4; human hepatic microsome, NADPH(+); read-out: CL NADPH(+).
Regarding `CCCN1CC(=O)N[C@@H](COC(C)(C)C)C(=O)N(C)CC(=O)N(C)[C@@H](CC(C)C)C(=O)N[C@@H]([C@@H](C)O)C(=O)N(C)[C@@H](Cc2ccccc2)C(=O)N(C)[C@@H](CC(C)C)C(=O)N(C)[C@@H]([C@@H](C)CC)C(=O)N(C)[C@@H](C)C(=O)N[C@H](C(=O)N2CCCCC2)CC1=O` [DP-634] ([NPrGly]S(tBu)[Sar][NMeL]T[NMeF][NMeL][NMeI][NMeA]D-Piperidide; lactam N-10), the microsomal CLint at 1 uM was 32 µL/min/mg.
In the case of `CCCN1CC(=O)N(C)[C@@H](CC(C)C)C(=O)N[C@H](C(=O)N2CCCCC2)CC(=O)N(C)[C@H](C)C(=O)N[C@@H](CC(C)C)C(=O)N(C)[C@@H](CC(C)C)C(=O)N(C)[C@@H](Cc2ccccc2)C(=O)N[C@@H](C)C(=O)N(C)[C@@H](Cc2ccccc2)C(=O)N(C)[C@@H]([C@@H](C)CC)C(=O)N[C@@H]([C@@H](C)O)C1=O` [DP-635] ([dNMeA]L[NMeL][NMeF]A[NMeF][NMeI]T[NPrGly][NMeL]D-Piperidide; lactam N-11), the microsomal CLint at 1 uM turned out to be 112 µL/min/mg.
In the case of `CCN1C(=O)[C@H](CC(C)C)N(C)C(=O)[C@H](CC(C)C)NC(=O)[C@@H](C)N(C)C(=O)C[C@@H](C(=O)N2CCCCC2)NC(=O)[C@H](CC(C)C)N(C)C(=O)CN(C)C(=O)[C@H]([C@@H](C)O)NC(=O)[C@H](CC(C)C)N(C)C(=O)[C@H](Cc2ccccc2)N(C)C(=O)[C@H](C)NC(=O)[C@@H]1Cc1ccccc1` [DP-636] ([dNMeA]L[NMeL][NEtPhe]A[NMeF][NMeL]T[Sar][NMeL]D-Piperidide; lactam N-11), the microsomal CLint at 1 uM amounted to 73 µL/min/mg.
Same read-out and setting: then `CCN1C(=O)[C@H](C)NC(=O)[C@H](Cc2ccccc2)N(C)C(=O)[C@H](CC(C)C)N(C)C(=O)[C@H](CC(C)C)NC(=O)[C@@H](C)N(C)C(=O)C[C@@H](C(=O)N2CCCCC2)NC(=O)[C@H](CC(C)C)N(C)C(=O)CN(C)C(=O)[C@H]([C@@H](C)O)NC(=O)[C@H](CC(C)C)N(C)C(=O)[C@@H]1Cc1ccccc1` [DP-637] ([dNMeA]L[NMeL][NMeF]A[NEtPhe][NMeL]T[Sar][NMeL]D-Piperidide; lactam N-11), with 56 µL/min/mg; and `CC[C@H](C)[C@H]1C(=O)N(C)[C@@H](CC(C)C)C(=O)N[C@H](C(=O)N2CCCCC2)CC(=O)N(C)CC(=O)N[C@@H](CC(C)C)C(=O)N[C@@H]([C@@H](C)O)C(=O)N(C)CC(=O)N(C)[C@@H](Cc2ccccc2)C(=O)N[C@@H](C)C(=O)N(CC)[C@@H](Cc2ccccc2)C(=O)N[C@@H](CC(C)C)C(=O)N1C` [DP-638] ([Sar]LT[Sar][NMeF]A[NEtPhe]L[NMeI][NMeL]D-Piperidide; lactam N-11), with 47 µL/min/mg.
Consider `CC[C@H](C)[C@@H]1NC(=O)[C@H](Cc2ccccc2)N(C)C(=O)[C@@H](C)NC(=O)C[C@@H](C(=O)N2CCCCC2)NC(=O)[C@H](C(C)C)NC(=O)CN(C)C(=O)[C@H]([C@@H](C)O)NC1=O` [DP-674] ([dA][NMeF]IT[Sar]VD-Piperidide; lactam N-7), for which the microsomal CLint at 1 uM was determined as 10 µL/min/mg.
As to `CC[C@H](C)[C@@H]1NC(=O)[C@H](CC(C)C)N(C)C(=O)CN(C)C(=O)[C@H](Cc2ccccc2)NC(=O)[C@H](C(C)C)N(C)C(=O)[C@H](C)N(C)C(=O)[C@H]([C@@H](C)O)NC(=O)[C@H](C)N(C)C(=O)C[C@@H](C(=O)N2CCCCC2)NC(=O)[C@H](C)NC1=O` [DP-675] ([NMeA]T[NMeA][NMeV]F[Sar][NMeL]IAD-Piperidide; lactam N-10), the microsomal CLint at 1 uM turned out to be 22 µL/min/mg.
The same measure, in the same setting: then `CC[C@H](C)[C@@H]1NC(=O)[C@H](Cc2ccccc2)N(C)C(=O)[C@H](CCc2ccccc2)NC(=O)[C@H](C(C)C)N(C)C(=O)[C@H](CC(C)C)N(C)C(=O)[C@H](CC(C)C)NC(=O)[C@@H](C)NC(=O)C[C@@H](C(=O)N2CCCCC2)NC(=O)[C@H]([C@@H](C)O)NC(=O)[C@H](C)NC(=O)[C@H](C)N(C)C1=O` [DP-730] ([dA]L[NMeL][NMeV][hPhe][NMeF]I[NMeA]ATD-Piperidide; lactam N-11), with 50 µL/min/mg; and `C=C1CCC(=O)N(C)[C@@H](Cc2ccccc2)C(=O)N(C)CC(=O)N(C)[C@@H](CC(C)C)C(=O)N[C@@H]([C@@H](C)O)C(=O)N(C)[C@@H](C)C(=O)N(C)[C@@H](CC(C)C)C(=O)N(C)[C@@H]([C@@H](C)CC)C(=O)N[C@@H](COC(C)(C)C)C(=O)N[C@H](C(=O)N2CCCCC2)Cc2ccc1cc2` [DP-830], with 321 µL/min/mg.
The same measure, in the same setting: the figure for `CC[C@H](C)[C@H]1C(=O)N[C@@H](COC(C)(C)C)C(=O)N[C@H](C(=O)N2CCCCC2)Cc2ccc(cc2)CCCCCC(=O)N(C)[C@@H](Cc2ccccc2)C(=O)N(C)CC(=O)N(C)[C@@H](CC(C)C)C(=O)N[C@@H]([C@@H](C)O)C(=O)N(C)[C@@H](C)C(=O)N(C)[C@@H](CC(C)C)C(=O)N1C` [DP-832] ([NMeF][Sar][NMeL]T[NMeA][NMeL][NMeI]S(tBu)[Phe(4-(CH2)5CO)]-Piperidide; lactam N-9) is 850 µL/min/mg.
Same read-out and setting: the figure for `C=C1CCC(=O)N(C)[C@@H](Cc2ccccc2)C(=O)N(C)[C@@H](CC(C)C)C(=O)N[C@@H]([C@@H](C)CC)C(=O)N(C)[C@@H](C)C(=O)N(C)[C@@H](Cc2ccccc2)C(=O)N[C@@H]([C@@H](C)O)C(=O)N(C)[C@@H](C)C(=O)N(C)[C@@H](CC(C)C)C(=O)N[C@H](C(=O)N2CCCCC2)Cc2ccc1cc2` [DP-833] is 427 µL/min/mg.
`CC[C@H](C)[C@@H]1NC(=O)[C@H](CC(C)C)N(C)C(=O)[C@H](Cc2ccccc2)N(C)C(=O)CCCCCc2ccc(cc2)C[C@@H](C(=O)N2CCCCC2)NC(=O)[C@H](CC(C)C)N(C)C(=O)[C@H](C)N(C)C(=O)[C@H]([C@@H](C)O)NC(=O)[C@H](Cc2ccccc2)N(C)C(=O)[C@H](C)N(C)C1=O` [DP-835] ([NMeF][NMeL]I[NMeA][NMeF]T[NMeA][NMeL][Phe(4-(CH2)5CO)]-Piperidide; lactam N-9): the microsomal CLint at 1 uM was found to be 497 µL/min/mg.
Same read-out and setting: the figure for `CC(C)C[C@H]1C(=O)N[C@@H](COC(C)(C)C)C(=O)N(C)[C@@H](CC(C)C)C(=O)N[C@H](C(=O)N2CCCCC2)Cc2ccc(cc2)CCCCCC(=O)N(C)[C@@H](C)C(=O)N(C)[C@@H](Cc2ccccc2)C(=O)N(C)[C@@H](CC(C)C)C(=O)N[C@@H]([C@@H](C)O)C(=O)N(C)CC(=O)N1C` [DP-837] ([NMeA][NMeF][NMeL]T[Sar][NMeL]S(tBu)[NMeL][Phe(4-(CH2)5CO)]-Piperidide; lactam N-9) is 284 µL/min/mg; for `C=C1CCC(=O)N[C@@H](COC(C)(C)C)C(=O)N(CCC)CC(=O)N(C)[C@@H](CC(C)C)C(=O)N[C@@H]([C@@H](C)O)C(=O)N(C)[C@@H](Cc2ccccc2)C(=O)N(C)[C@@H](CC(C)C)C(=O)N(C)[C@@H]([C@@H](C)CC)C(=O)N(C)[C@@H](C)C(=O)N[C@H](C(=O)N2CCCCC2)Cc2ccc1cc2` [DP-839] it is 91 µL/min/mg.
